Numbers after ± are expanded uncertainties.
How the values were obtained:
[1] = for vapor or sublimation pressure: Inclined piston gauge
[2] = Molar enthalpy of transition or fusion; details: Crystal; Adiabatic calorimetry
[3] = molar heat capacity at constant pressure; details: 101.33 kPa, Vacuum adiabatic calorimetry
[4] = molar heat capacity at saturation pressure; details: Vacuum adiabatic calorimetry

With `c1ccc2nc3ccccc3nc2c1` [phenazine] the “vapor or sublimation pressure” value ([1]; 389.95 K, Crystal) was 0.0331 ± 0.001 kPa, the “vapor or sublimation pressure” value ([1]; 400.01 K, Crystal) was 0.0682 ± 0.0011 kPa and the “vapor or sublimation pressure” value ([1]; 410 K, Crystal) was 0.1346 ± 0.0012 kPa. The “vapor or sublimation pressure” value ([1]; 420 K, Crystal) was 0.2572 ± 0.0013 kPa, the “vapor or sublimation pressure” value ([1]; 430 K, Crystal) was 0.476 ± 0.0015 kPa and the “vapor or sublimation pressure” value ([1]; 449.96 K, Liquid) was 1.444 ± 0.0027 kPa. The “vapor or sublimation pressure” value ([1]; 454.97 K, Liquid) was 1.754 ± 0.0031 kPa, the “vapor or sublimation pressure” value ([1]; 460.06 K, Liquid) was 2.127 ± 0.0035 kPa and the “vapor or sublimation pressure” value ([1]; 464.96 K, Liquid) was 2.548 ± 0.004 kPa. For the same compound, the “vapor or sublimation pressure” value ([1]; 469.96 K, Liquid) was 3.05 ± 0.0045 kPa, the “vapor or sublimation pressure” value ([1]; 471.96 K, Liquid) was 3.273 ± 0.0048 kPa and the Triple point temperature ([1]; Crystal, Adiabatic calorimetry) was 447.91 ± 0.05 K. For the same compound, the “Molar enthalpy of transition or fusion” value [2] was 5.956 ± 0.00621 kcal/mol, the “molar heat capacity at constant pressure” value ([3]; 5 K, Crystal) was 0.38 ± 0.02 J/K/mol and the “molar heat capacity at constant pressure” value ([3]; 10 K, Crystal) was 2.76 ± 0.03 J/K/mol. For the same compound, the “molar heat capacity at constant pressure” value ([3]; 20 K, Crystal) was 13.34 ± 0.091 J/K/mol, the “molar heat capacity at constant pressure” value ([3]; 30 K, Crystal) was 25.08 ± 0.091 J/K/mol and the “molar heat capacity at constant pressure” value ([3]; 40 K, Crystal) was 35.19 ± 0.11 J/K/mol. For the same compound, the “molar heat capacity at constant pressure” value ([3]; 50 K, Crystal) was 43.5 ± 0.12 J/K/mol, the “molar heat capacity at constant pressure” value ([3]; 60 K, Crystal) was 50.49 ± 0.14 J/K/mol and the “molar heat capacity at constant pressure” value ([3]; 70 K, Crystal) was 56.66 ± 0.16 J/K/mol. The “molar heat capacity at constant pressure” value ([3]; 80 K, Crystal) was 62.3 ± 0.17 J/K/mol, the “molar heat capacity at constant pressure” value ([3]; 90 K, Crystal) was 67.8 ± 0.27 J/K/mol and the “molar heat capacity at constant pressure” value ([3]; 100 K, Crystal) was 73.23 ± 0.27 J/K/mol. For the same compound, the “molar heat capacity at constant pressure” value ([3]; 120 K, Crystal) was 84.23 ± 0.28 J/K/mol, the “molar heat capacity at constant pressure” value ([3]; 140 K, Crystal) was 95.77 ± 0.3 J/K/mol and the “molar heat capacity at constant pressure” value ([3]; 160 K, Crystal) was 107.87 ± 0.31 J/K/mol. For the same compound, the “molar heat capacity at constant pressure” value ([3]; 180 K, Crystal) was 120.51 ± 0.32 J/K/mol, the “molar heat capacity at constant pressure” value ([3]; 200 K, Crystal) was 133.66 ± 0.33 J/K/mol and the “molar heat capacity at constant pressure” value ([3]; 220 K, Crystal) was 147.13 ± 0.35 J/K/mol. For the same compound, the “molar heat capacity at constant pressure” value ([3]; 240 K, Crystal) was 160.98 ± 0.36 J/K/mol, the “molar heat capacity at constant pressure” value ([3]; 260 K, Crystal) was 175.01 ± 0.37 J/K/mol and the “molar heat capacity at constant pressure” value ([3]; 280 K, Crystal) was 188.99 ± 0.39 J/K/mol. For the same compound, the “molar heat capacity at constant pressure” value ([3]; 298.15 K, Crystal) was 201.63 ± 0.4 J/K/mol, the “molar heat capacity at constant pressure” value ([3]; 300 K, Crystal) was 202.93 ± 0.4 J/K/mol and the “molar heat capacity at constant pressure” value ([3]; 320 K, Crystal) was 216.89 ± 0.42 J/K/mol. The “molar heat capacity at constant pressure” value ([3]; 340 K, Crystal) was 230.56 ± 0.43 J/K/mol, the “molar heat capacity at constant pressure” value ([3]; 360 K, Crystal) was 244.06 ± 0.44 J/K/mol and the “molar heat capacity at constant pressure” value ([3]; 380 K, Crystal) was 257.36 ± 0.46 J/K/mol. For the same compound, the “molar heat capacity at constant pressure” value ([3]; 400 K, Crystal) was 270.46 ± 0.47 J/K/mol, the “molar heat capacity at constant pressure” value ([3]; 420 K, Crystal) was 283.41 ± 0.48 J/K/mol and the “molar heat capacity at constant pressure” value ([3]; 440 K, Crystal) was 296.01 ± 0.5 J/K/mol. The “molar heat capacity at constant pressure” value ([3]; 447.91 K, Crystal) was 300.87 ± 0.5 J/K/mol, the “molar heat capacity at constant pressure” value ([3]; 447.91 K, Liquid) was 331.96 ± 0.53 J/K/mol and the “molar heat capacity at constant pressure” value ([3]; 460 K, Liquid) was 337 ± 0.54 J/K/mol. For the same compound, the “molar heat capacity at constant pressure” value ([3]; 480 K, Liquid) was 345.14 ± 0.55 J/K/mol, the “molar heat capacity at constant pressure” value ([3]; 500 K, Liquid) was 353.07 ± 0.56 J/K/mol and the “molar heat capacity at constant pressure” value ([3]; 520 K, Liquid) was 360.67 ± 0.56 J/K/mol. For the same compound, the molar heat capacity ([4]; 6.135 K, Crystal) was 0.71 ± 0.02 J/K/mol, the molar heat capacity ([4]; 7.091 K, Crystal) was 1.09 ± 0.02 J/K/mol and the molar heat capacity ([4]; 8.146 K, Crystal) was 1.57 ± 0.02 J/K/mol. It also gave a molar heat capacity ([4]; 9.073 K, Crystal) of 2.09 ± 0.03 J/K/mol, a molar heat capacity ([4]; 9.999 K, Crystal) of 2.77 ± 0.03 J/K/mol and a molar heat capacity ([4]; 11.1 K, Crystal) of 3.68 ± 0.04 J/K/mol. For the same compound, the molar heat capacity ([4]; 12.32 K, Crystal) was 4.78 ± 0.05 J/K/mol, the molar heat capacity ([4]; 13.68 K, Crystal) was 6.14 ± 0.06 J/K/mol and the molar heat capacity ([4]; 15.19 K, Crystal) was 7.78 ± 0.07 J/K/mol. For the same compound, the molar heat capacity ([4]; 16.85 K, Crystal) was 9.645 ± 0.07 J/K/mol, the molar heat capacity ([4]; 18.69 K, Crystal) was 11.81 ± 0.083 J/K/mol and the molar heat capacity ([4]; 20.75 K, Crystal) was 14.23 ± 0.091 J/K/mol. The molar heat capacity ([4]; 23.04 K, Crystal) was 16.99 ± 0.1 J/K/mol, the molar heat capacity ([4]; 25.58 K, Crystal) was 20 ± 0.1 J/K/mol and the molar heat capacity ([4]; 28.4 K, Crystal) was 23.28 ± 0.1 J/K/mol. It also gave a molar heat capacity ([4]; 31.54 K, Crystal) of 26.77 ± 0.1 J/K/mol, a molar heat capacity ([4]; 35.04 K, Crystal) of 30.43 ± 0.1 J/K/mol and a molar heat capacity ([4]; 38.95 K, Crystal) of 34.21 ± 0.11 J/K/mol. It also gave a molar heat capacity ([4]; 43.3 K, Crystal) of 38.1 ± 0.12 J/K/mol, a molar heat capacity ([4]; 48.12 K, Crystal) of 42.05 ± 0.12 J/K/mol and a molar heat capacity ([4]; 52.7 K, Crystal) of 45.41 ± 0.13 J/K/mol. It also gave a molar heat capacity ([4]; 53.49 K, Crystal) of 46.07 ± 0.13 J/K/mol, a molar heat capacity ([4]; 57.63 K, Crystal) of 48.91 ± 0.14 J/K/mol and a molar heat capacity ([4]; 59.46 K, Crystal) of 50.14 ± 0.14 J/K/mol. The molar heat capacity ([4]; 63.45 K, Crystal) was 52.68 ± 0.15 J/K/mol, the molar heat capacity ([4]; 69.82 K, Crystal) was 56.56 ± 0.15 J/K/mol and the molar heat capacity ([4]; 76.91 K, Crystal) was 60.58 ± 0.16 J/K/mol. For the same compound, the molar heat capacity ([4]; 84.71 K, Crystal) was 64.9 ± 0.17 J/K/mol, the molar heat capacity ([4]; 93.41 K, Crystal) was 69.64 ± 0.27 J/K/mol and the molar heat capacity ([4]; 102.69 K, Crystal) was 74.69 ± 0.27 J/K/mol. The molar heat capacity ([4]; 112.24 K, Crystal) was 79.93 ± 0.28 J/K/mol, the molar heat capacity ([4]; 121.98 K, Crystal) was 85.34 ± 0.28 J/K/mol and the molar heat capacity ([4]; 131.78 K, Crystal) was 90.96 ± 0.29 J/K/mol. The molar heat capacity ([4]; 141.72 K, Crystal) was 96.78 ± 0.3 J/K/mol, the molar heat capacity ([4]; 148.27 K, Crystal) was 100.69 ± 0.3 J/K/mol and the molar heat capacity ([4]; 151.74 K, Crystal) was 102.79 ± 0.3 J/K/mol. For the same compound, the molar heat capacity ([4]; 157 K, Crystal) was 106 ± 0.31 J/K/mol, the molar heat capacity ([4]; 161.79 K, Crystal) was 108.99 ± 0.31 J/K/mol and the molar heat capacity ([4]; 166.83 K, Crystal) was 112.14 ± 0.32 J/K/mol. For the same compound, the molar heat capacity ([4]; 176.79 K, Crystal) was 118.44 ± 0.32 J/K/mol, the molar heat capacity ([4]; 186.88 K, Crystal) was 124.97 ± 0.32 J/K/mol and the molar heat capacity ([4]; 197.06 K, Crystal) was 131.7 ± 0.33 J/K/mol. The molar heat capacity ([4]; 207.29 K, Crystal) was 138.54 ± 0.34 J/K/mol, the molar heat capacity ([4]; 217.54 K, Crystal) was 145.45 ± 0.35 J/K/mol and the molar heat capacity ([4]; 227.79 K, Crystal) was 152.5 ± 0.35 J/K/mol. For the same compound, the molar heat capacity ([4]; 238.02 K, Crystal) was 159.59 ± 0.36 J/K/mol, the molar heat capacity ([4]; 248.23 K, Crystal) was 166.76 ± 0.37 J/K/mol and the molar heat capacity ([4]; 258.43 K, Crystal) was 173.9 ± 0.37 J/K/mol. For the same compound, the molar heat capacity ([4]; 268.62 K, Crystal) was 181.08 ± 0.38 J/K/mol, the molar heat capacity ([4]; 278.79 K, Crystal) was 188.12 ± 0.39 J/K/mol and the molar heat capacity ([4]; 288.98 K, Crystal) was 195.25 ± 0.4 J/K/mol. The molar heat capacity ([4]; 292.45 K, Crystal) was 197.59 ± 0.4 J/K/mol, the molar heat capacity ([4]; 299.09 K, Crystal) was 202.31 ± 0.4 J/K/mol and the molar heat capacity ([4]; 303.14 K, Crystal) was 205.11 ± 0.41 J/K/mol. For the same compound, the molar heat capacity ([4]; 315.26 K, Crystal) was 213.62 ± 0.42 J/K/mol, the molar heat capacity ([4]; 327.34 K, Crystal) was 221.93 ± 0.42 J/K/mol and the molar heat capacity ([4]; 339.58 K, Crystal) was 230.27 ± 0.43 J/K/mol. It also gave a molar heat capacity ([4]; 341.22 K, Crystal) of 231.31 ± 0.43 J/K/mol, a molar heat capacity ([4]; 351.33 K, Crystal) of 238.27 ± 0.44 J/K/mol and a molar heat capacity ([4]; 362.68 K, Crystal) of 245.89 ± 0.45 J/K/mol. It also gave a molar heat capacity ([4]; 375.17 K, Crystal) of 254.22 ± 0.46 J/K/mol, a molar heat capacity ([4]; 383.74 K, Crystal) of 259.84 ± 0.46 J/K/mol and a molar heat capacity ([4]; 387.73 K, Crystal) of 262.47 ± 0.47 J/K/mol. It also gave a molar heat capacity ([4]; 394.22 K, Crystal) of 266.7 ± 0.47 J/K/mol, a molar heat capacity ([4]; 400.35 K, Crystal) of 270.7 ± 0.47 J/K/mol and a molar heat capacity ([4]; 404.56 K, Crystal) of 273.47 ± 0.47 J/K/mol. For the same compound, the molar heat capacity ([4]; 413.04 K, Crystal) was 278.97 ± 0.48 J/K/mol, the molar heat capacity ([4]; 415.93 K, Crystal) was 280.86 ± 0.48 J/K/mol and the molar heat capacity ([4]; 426.29 K, Crystal) was 287.62 ± 0.49 J/K/mol. For the same compound, the molar heat capacity ([4]; 428.38 K, Crystal) was 288.92 ± 0.49 J/K/mol, the molar heat capacity ([4]; 438.38 K, Crystal) was 296.29 ± 0.5 J/K/mol and the molar heat capacity ([4]; 439.14 K, Crystal) was 296.66 ± 0.5 J/K/mol. The molar heat capacity ([4]; 453.29 K, Liquid) was 334.17 ± 0.53 J/K/mol, the molar heat capacity ([4]; 455.84 K, Liquid) was 335.26 ± 0.53 J/K/mol and the molar heat capacity ([4]; 456.63 K, Liquid) was 335.61 ± 0.53 J/K/mol. It also gave a molar heat capacity ([4]; 460.6 K, Liquid) of 337.14 ± 0.54 J/K/mol, a molar heat capacity ([4]; 461.49 K, Liquid) of 337.63 ± 0.54 J/K/mol and a molar heat capacity ([4]; 475.45 K, Liquid) of 343.31 ± 0.54 J/K/mol. For the same compound, the molar heat capacity ([4]; 490.19 K, Liquid) was 349.18 ± 0.55 J/K/mol, the molar heat capacity ([4]; 504.28 K, Liquid) was 354.75 ± 0.56 J/K/mol and the molar heat capacity ([4]; 510.36 K, Liquid) was 357.26 ± 0.56 J/K/mol. It also gave a molar heat capacity ([4]; 516.76 K, Liquid) of 359.48 ± 0.56 J/K/mol.
